Square brackets hold non-standard residues; d marks the D form. Peptide text beside a SMILES is read from it. * marks the point of attachment. Bz = O=C(c1ccccc1)*
Test system: human neutrophils
Assay: Expression of CD11b on the cell surface of activated neutrophils (flow cytometry)
Assay type: cell-based
Method: The suspension of neutrophils was mixed at 37° C. and pre-heated for 5 min, and then compounds with different concentrations for measurements were added. […] And the reaction termination is done by on-ice setting. The supernatant was removed after centrifugation, and make the cells suspension again in the balanced salt solution containing bovine serum albumin (BSA). Anti-CD11b with fluorescein isothiocyanate (FITC) labeling was added, and kept on ice and in the dark. Finally, a balanced salt solution was added to terminate the reaction. By means of the flow cytometer for detecting the anti-CD11b with fluorescein isothiocyanate (FITC) labeling, it is possible to further evaluate whether the candidate compounds had influence on CD11b expression on the cell membranes of activated neutrophils according to changes in fluorescence. […].

IC50 (Homo sapiens, Neutrophil, stimulus of fMLF (30 nM)/CB, read-out: inhibition of CD11b expression on cell membranes, IC50): 0.26 ± 0.05 µM
Structure (SMILES): COC(=O)[C@@H](Cc1ccccc1)NC(=O)[C@H](Cc1c[nH]c2ccccc12)NC(=O)c1ccccc1 [Compound 3, N—(N-Benzoyl-L-tryptophanyl)-D-phenylalanine methyl ester] (Bz-Trp-[dF]-OMe)
inhibition of CD11b expression on cell membranes (stimulus of IL-8 (100 nM), FIG. 2(n)): no inhibitory effects | inhibition of CD11b expression on cell membranes (stimulus of MMK1, FIG. 2(h)): no inhibitory effects

Source: patent US9593144B2, “FPR1 antagonist derivatives and use thereof” (CHANG GUNG UNIVERSITY, priority 2014, dated 2017)
